The values below come from patent US20060122181A1, “Heteroaromatic pentacyclic compound and medicinal use thereof” (Japan Tobacco Inc., priority 2003, published 2006).

`CN(Cc1ccc(C2CCCCC2)cc1)c1ccc(-c2csc(CN3CCN(CC(=O)O)CC3)n2)cc1` [Example 3-111]: the melting point lay in the range of 190 to 191 °C.

`CCCC(CCC)c1ccc(COc2ccc(-c3csc(CN4Cc5ccccc5C[C@H]4C(=O)[O-])n3)cc2)cc1.[Na+]` [Example 3-112]: the melting point fell in the range of 254 to 255 °C.

`CCCC(CCC)c1ccc(COc2ccc(-c3csc(COc4cncc(C(=O)O)c4)n3)c(C)c2)cc1` [Example 3-114] gave a melting point of 148 to 150 °C.

In turn, `CCCC(CCC)c1ccc(COc2ccc(-c3csc(COc4cncc(C(=O)O)c4)n3)cc2OC)cc1` [Example 3-115] showed a melting point of 156 to 158 °C.

On to `CCCC(CCC)c1ccc(COc2ccc(-c3csc(CN4Cc5ccccc5CC4C(=O)O)n3)cc2)cc1` (stereo not shown) [Example 3-118], for which the melting point lay in the range of 127 to 130 °C.

`CCCC(CCC)c1ccc(COc2ccc(-c3csc(CN(CC(=O)O)Cc4cscn4)n3)c(C)c2)cc1` [Example 3-121] returned a melting point of 103 to 104 °C.

The compound `CCCC(CCC)c1ccc(COc2ccc(-c3csc(CN(CC(=O)O)Cc4csc(C)n4)n3)c(C)c2)cc1` [Example 3-122] came in with a melting point of 98 to 103 °C.

In the case of `CCCC(CCC)c1ccc(CN2CCCc3cc(-c4csc(CN(CC(=O)O)Cc5nc(C(C)(C)C)cs5)n4)ccc32)cc1` [Example 3-125], the melting point was in the range of 132 to 135 °C.

`CCCC(CCC)c1ccc(COc2ccc(-c3csc(CN4CCN(c5ccc(C(=O)O)cc5)CC4)n3)cc2)cc1` [Example 3-127] gave a melting point of 241 to 243 °C.

`CCOC(=O)c1ccc(OCc2nc(-c3nc4cc(C(CC)CC)ccc4n3Cc3ccc(C(C)C)cc3)cs2)cc1` [Example 3-128]: the melting point lay within 106 to 107 °C.

`CCC(CC)c1ccc2c(c1)nc(-c1csc(COc3ccc(C(=O)O)cc3)n1)n2Cc1ccc(C(C)C)cc1` [Example 3-129] had a melting point of 139 to 142 °C.

`CCC(CC)c1ccc2c(c1)nc(-c1csc(COc3ccc(C(=O)O)cc3)n1)n2Cc1ccc(C(C)=O)cc1` [Example 3-130] yielded a melting point of 127 to 132 °C.

On to `CCC(CC)c1ccc2nc(-c3csc(COc4ccc(C(=O)O)cc4)n3)n(Cc3ccc(C(C)=O)cc3)c2c1` [Example 3-131], for which the melting point was in the range of 138 to 139 °C.

`CCC(CC)c1ccc2c(c1)nc(-c1csc(COc3ccc(C(=O)O)cc3)n1)n2CC1CCCCC1` [Example 3-132] registered a melting point of 176 to 183 °C.

For `CCCC(CCC)c1ccc(N(Cc2ccc(-c3csc(COc4cncc(C(=O)O)c4)c3)cc2)C(C)C)cc1` [Example 4-3], the melting point came to 156 °C.

Turning to `CCC(CC)c1ccc(N(Cc2ccc(-c3csc(COc4cncc(C(=O)O)c4)c3)cc2)C(C)C)cc1` [Example 4-4], the melting point came out at 160 °C.

On to `CCCC(CCC)c1ccc(OCc2ccc(-c3ccc(CN(CC(=O)O)Cc4nc5ccccc5[nH]4)s3)cc2)cc1` [Example 4-8], for which the melting point lay in the range of 173 to 175 °C.

Take `CCCC(CCC)c1ccc(OCc2ccc(-c3ccc(CN(CC(=O)O)CC(=O)Nc4ccccc4)s3)cc2)cc1` [Example 4-10]: the melting point lay within 122 to 124 °C.

Take `CCCC(CCC)c1ccc(OCc2ccc(-c3csc(CN(CC(=O)O)Cc4nc(C(C)(C)C)cs4)c3)cc2)cc1` [Example 4-15]: the melting point came to 166 °C.

The compound `CCCC(CCC)c1ccc(OCc2ccc(-c3csc(CN(CC(=O)O)CC(=O)Nc4ccccc4)c3)cc2)cc1` [Example 4-16] returned a melting point of 155 °C.

In turn, `CCC(CC)c1ccc(N(Cc2ccc(-c3ccc(COc4cncc(C(=O)O)c4)s3)cc2)C(C)C)cc1` [Example 4-17] showed a melting point of 160 to 164 °C.

Turning to `CCCC(CCC)c1ccc(N(Cc2ccc(-c3ccc(COc4cncc(C(=O)O)c4)s3)cc2)C(C)C)cc1` [Example 4-18], the melting point is 93 to 98 °C.

In turn, `CCC(CC)c1ccc(N(Cc2ccc(-c3ccc(CN(CC(=O)O)Cc4nc(C(C)(C)C)cs4)s3)cc2)C(C)C)cc1` [Example 4-19] displayed a melting point of 92 to 98 °C.

Consider `CCCC(CCC)c1ccc(N(Cc2ccc(-c3ccc(CN(CC(=O)O)Cc4nc(C(C)(C)C)cs4)s3)cc2)C(C)C)cc1` [Example 4-20], for which the melting point was 78 to 82 °C.

`CCC(CC)c1ccc(N(Cc2ccc(-c3ccc(CN(CC(=O)O)Cc4nc5ccccc5[nH]4)s3)cc2)C(C)C)cc1` [Example 4-21] had a melting point of 142 to 146 °C.

Compound `CCCC(CCC)c1ccc(N(Cc2ccc(-c3ccc(CN(CC(=O)O)Cc4nc5ccccc5[nH]4)s3)cc2)C(C)C)cc1` [Example 4-22] yielded a melting point of 144 to 150 °C.

Turning to `CCCC(CCC)c1ccc(OCc2ccc(-c3csc(CN(CC(=O)O)CC(=O)Nc4ccc(C(C)C)cc4)c3)cc2)cc1` [Example 4-27], the melting point was 164 to 166 °C.

The compound `CCC(CC)c1ccc(N(Cc2ccc(-c3ccc(CN4Cc5ccccc5C[C@H]4C(=O)O)s3)cc2)C(C)C)cc1` [Example 4-28] yielded a melting point of 152 °C.

As to `CCCC(CCC)c1ccc(OCc2ccc(-c3csc(CN(CC(=O)O)Cc4ncc(C(C)(C)C)o4)c3)cc2)cc1` [Example 4-29], the melting point is 120.5 °C.

In turn, `CCCC(CCC)c1ccc(OCc2ccc(-c3ccc(C(=O)N(CC(=O)O)Cc4ccccn4)s3)cc2)cc1` [Example 4-46] had a melting point of 147 to 150 °C.

Compound `CCCC(CCC)c1ccc(OCc2ccc(-c3ccc(C(=O)N(CC(=O)O)Cc4cccnc4)s3)cc2)cc1` [Example 4-47] had a melting point of 153 to 156 °C.

For `CCCC(CCC)c1ccc(OCc2ccc(-c3csc(COc4cncc(C(=O)O)c4)c3)cc2)cc1.O=S(=O)(O)O` [Example 4-48], the melting point was 151 to 155 °C (dec.).

In the case of `CCCC(CCC)c1ccc(OCc2ccc(-c3ccc(CN(CC(=O)O)S(C)(=O)=O)s3)cc2)cc1` [Example 4-49], the melting point was 133.1 to 136.5 °C.

Regarding `CCCC(CCC)c1ccc(OCc2ccc(-c3csc(CN(CCC(C)C)CC(=O)O)c3)cc2)cc1` [Example 4-71], the melting point is 176 to 182 °C.

`CCCC(CCC)c1ccc(OCc2ccc(-c3ccc(CN(CC(=O)O)Cc4cccc(C(=O)O)c4)s3)cc2)cc1` [Example 4-76] had a melting point of 202.8 to 206.4 °C.

Take `CCCC(CCC)c1ccc(OCc2ccc(-c3ccc(CN(CC(=O)OCC)Cc4nc5ccccc5n4C)s3)cc2)cc1` [Example 4-83]: the melting point fell in the range of 82 to 84 °C.

The compound `CC(C)(C)Cc1nc2ccccc2n1Cc1ccc(-c2csc(CN(CC(=O)O)Cc3ccccc3)c2)cc1` [Example 4-85] came in with a melting point of 161 to 166 °C.

The compound `CCCC(CCC)c1ccc(OCc2ccc(-c3csc(CN(CC(=O)O)Cc4cn(C)c5ccccc45)c3)cc2)cc1` [Example 4-86] returned a melting point of 170.5 to 171.9 °C.

For `CCCCOc1ccc(S(=O)(=O)N(CC)c2ccc(-c3csc(CN(CC(=O)O)Cc4ccccc4)c3)cc2)cc1` [Example 4-103], the melting point is 120.7 to 123.3 °C.

The compound `O=C(O)CN(Cc1ccccc1)Cc1cc(-c2ccc(COc3cc(Cl)cc(Cl)c3)cc2)cs1` [Example 4-105] gave a melting point of 202.3 to 204.2 °C.
